In US8735406B2, “8-oxodihydropurine derivative” (Dainippon Sumitomo Pharma Co., Ltd., priority 2009, dated 2014):
Like-named read-outs stand apart in the source and are kept apart here.

Target: T1, FAAH (Rattus norvegicus, UniProt P97612)
T1 construct: Preparation of Rat Brain Membranes Preparations (FAAH Enzyme Solution); from tissue; host or cells: rat cerebrum (brain membrane preparation)
T1 sequence (P97612 1-579): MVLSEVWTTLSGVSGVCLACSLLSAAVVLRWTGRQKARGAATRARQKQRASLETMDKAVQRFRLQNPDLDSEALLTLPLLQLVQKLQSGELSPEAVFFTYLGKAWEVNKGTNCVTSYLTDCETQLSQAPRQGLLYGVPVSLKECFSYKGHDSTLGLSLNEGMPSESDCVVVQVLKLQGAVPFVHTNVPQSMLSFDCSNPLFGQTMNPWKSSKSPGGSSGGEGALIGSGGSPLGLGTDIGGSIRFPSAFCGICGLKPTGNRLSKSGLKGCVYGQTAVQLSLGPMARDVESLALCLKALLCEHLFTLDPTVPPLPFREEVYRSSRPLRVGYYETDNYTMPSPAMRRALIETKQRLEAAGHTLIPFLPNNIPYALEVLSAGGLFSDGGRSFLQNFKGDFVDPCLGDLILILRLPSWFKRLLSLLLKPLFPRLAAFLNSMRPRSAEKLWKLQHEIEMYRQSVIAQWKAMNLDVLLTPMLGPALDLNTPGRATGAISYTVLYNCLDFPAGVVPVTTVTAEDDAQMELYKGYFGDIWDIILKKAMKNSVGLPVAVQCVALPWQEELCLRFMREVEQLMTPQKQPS
Experiment: Determination of FAAH inhibitory activity in rat (rat brain membrane preparations, [3H]-anandamide hydrolysis)
Type: biochemical
Conditions: rat brain membrane preparations; for IC50: read-out: FAAH Inhibition IC50
Procedure: Determination of FAAH Inhibitory Activity in Rat
The preparation of rat brain membranes preparations and the determination of FAAH inhibitory activity were carried out according to the Jonsson et al. method [Br. J. Pharmacol., 133, 1263 (2001)].
(1) Preparation of Rat Brain Membranes Preparations (FAAH Enzyme Solution)
The cerebrum was extracted from rats and was freeze-stored at −80° C. To the frozen cerebrum was added 4° C. enzyme homogenization buffer (20 mM HEPES-buffer pH 7.0, 1 mM MgCl2) and the mixture was homogenized using a homogenizer in ice and the homogenates were centrifuged (36,000×g for 20 minutes). After repeating operations of homogenization and centrifugation, the tissue pellets were re-suspended with 4° C. enzyme homogenization buffer. The re-suspensions were incubated at 37° C. for 15 minutes and were centrifuged (36,000×g for 20 minutes), and the resulting tissue membranes were then re-suspended with enzyme solution preparation buffer (50 mM Tris-HCl buffer pH 7.4, 1 mM EDTA, 3 mM MgCl2). The protein concentration in the resulting membrane preparations were determined according to a colorimetry method (BCA Protein Assay: Pierce Inc.) and the preparations were freeze-stored at −80° C. until used for assay.
(2) Screening of Substances for Inhibiting FAAH Activity
To the above membrane preparations (final concentration 100 μg/mL) were added a solution of test substances in DMSO (final concentration in DMSO 1%) and an assay buffer (for final preparation; 22 mM Tris-HCl (pH 7.6), 1.4 mM EDTA, 1.5% BSA, 0.6 mM MgCl2) and the resulting mixtures were preincubated at 37° C. for 10 minutes. Thereto was added a substrate solution (for final preparation; 2 nM [^3H]-Anandamide (American Radiolabeled Chemicals Inc.)+2 μM Anandamide (Sigma-Aldrich Co.)) (final assay volume of 200 μL) and the resulting mixtures were incubated at 37° C. for 10 minutes. Here in control experiment, DMSO was added instead of the solution of test substance in DMSO. Also in blank experiment, DMSO was added instead of the solution of test substance in DMSO and an enzyme solution preparation buffer was also added instead of the membrane preparations. After the incubation, thereto was added a 400 μL ice-cooled solution of chloroform and methanol (1:1 ratio by volume) and the resulting mixtures were stirred. An ethanolamine (ethanolamine-1-[^3H]) as a decomposed product was separated into an upper layer (water/methanol layer) by centrifugation (1,000×g for 10 minutes). The upper layer 200 μL was transferred into 96 well Deepwell Luma Plate-96 (PerkinElmer Inc.) and the radioactivity was measured by microplate scintillation counter (TopCount NXT™: […].). The substances showing a lower measured value compared to those of control were selected as the compound having a FAAH inhibitory activity.
(3) Determination of IC50 Value
The test substances were prepared such that the final concentration of the compounds is within the range of 0.1 nM to 1 μM and were then examined on the effect on FAAH activity according to the above-mentioned protocol.

[1] = 100 nM test substance, read-out: FAAH Inhibition, Inhibition Rate at 100 nM
[2] = at 100 nM, read-out: FAAH Inhibition Inhibition Rate at 100 nM

| inhibition at 0.1 µM [1] | IC50 (test substance 0.1 nM to 1 μM) | inhibition at 0.1 µM [2] | IC50 | SMILES |
| --- | --- | --- | --- | --- |
| 88% | 53 nM |  |  | Cn1c(=O)n(C(=O)N2CCCC2)c2cnc(-c3cccc(O)c3)nc21 [Example 311, 2-(3-hydroxyphenyl)-9-methyl-7-(pyrrolidin-1-ylcarbonyl)-7,9-dihydro-8H-purine-8-one] |
| 97% | 24 nM |  |  | Cn1c(=O)n(C(=O)N2CCCC2)c2nc(Cc3ccc(F)c(F)c3)ncc21 [Example 293, 2-(3,4-Difluorobenzyl)-7-methyl-9-(pyrrolidin-1-ylcarbonyl)-7,9-dihydro-8H-purine-8-one] |
|  |  | 90% | 10 nM | CCc1ncc2c(n1)n(C)c(=O)n2C(=O)N1CC(c2ccc(F)cc2)C1 [compound 628] |
| 87% | 94 nM |  |  | Cn1c(=O)n(C(=O)N2CCC2)c2nc(CCc3ccccc3F)ncc21 [Example 583, 9-(Azetidin-1-ylcarbonyl)-2-[2-(2-fluorophenyl)ethyl]-7-methyl-7,9-dihydro-8H-purine-8-one] |
| 96% | 30 nM |  |  | Cn1c(=O)n(C(=O)N2CCN(c3ccccc3F)CC2)c2cnc(-c3ccccc3)nc21 [Example 125, 7-{[4-(2-Fluorophenyl)piperazin-1-yl]carbonyl}-9-methyl-2-phenyl-7,9-dihydro-8H-purine-8-one] |
|  |  | 92% | 15 nM | CCOc1cccc(CCc2ncc3c(n2)n(C(=O)N2CCC2)c(=O)n3C)c1 [compound 604] |
| 103% | 3 nM |  |  | COc1cccc(-c2ncc3c(n2)n(C)c(=O)n3C(=O)N(C)CCc2ccc(N(C)C)cc2)c1 [Example 113, N-{2-[4-(Dimethylamino)phenyl]ethyl}-2-(3-methoxyphenyl)-N,9-dimethyl-8-oxo-8,9-dihydro-7H-purine-7-carboxamide] |
| 78% | 44 nM |  |  | CCN(C)C(=O)n1c(=O)n(C)c2cnc(CCc3cccc(C)c3)nc21 [compound 556] |
| 66% | 77 nM |  |  | Cn1c(=O)n(C(=O)N2CCCC2)c2nc(Cc3ccccc3)ncc21 [compound 285] |
| 101% | 11 nM |  |  | Cn1c(=O)n(C(=O)N2CCN(c3ccccc3)CC2)c2cnc(-c3ccccc3)nc21 [Example 120, 9-Methyl-2-phenyl-7-[(4-phenylpiperazin-1-yl)carbonyl]-7,9-dihydro-8H-purine-8-one] |
| 101% | 6 nM |  |  | Cn1c(=O)n(C(=O)N2CCN(c3cccc(F)c3)CC2)c2cnc(-c3ccccc3)nc21 [Example 124, 7-{[4-(3-Fluorophenyl)piperazin-1-yl]carbonyl}-9-methyl-2-phenyl-7,9-dihydro-8H-purine-8-one] |
| 94% | 43 nM |  |  | Cn1c(=O)n(C(=O)N2CCCC2)c2nc(/C=C/c3ccccc3)ncc21 [Example 241, 7-Methyl-2-[(E)-2-phenylethenyl]-9-(pyrrolidin-1-ylcarbonyl)-7,9-dihydro-8H-purine-8-one] |
| 98% | 10 nM |  |  | Cn1c(=O)n(C(=O)N2CCCC2)c2cnc(-c3ccnc(F)c3)nc21 [Example 215, 2-(2-Fluoropyridin-4-yl)-9-methyl-7-(pyrrolidin-1-ylcarbonyl)-7,9-dihydro-8H-purine-8-one] |
| 90% | 23 nM |  |  | O=C(N1CCCC1)n1c(=O)[nH]c2nc(-c3ccccc3)ncc21 [Example 301, 2-phenyl-7-(pyrrolidin-1-ylcarbonyl)-7,9-dihydro-8H-purine-8-one] |
| 58% | 59 nM |  |  | Cn1c(=O)n(C(=O)N2CCC2)c2nc(CCc3ccc(OCC(F)F)cc3)ncc21 [Example 593, 9-(Azetidin-1-ylcarbonyl)-2-{2-[4-(2,2-difluoroethoxy)phenyl]ethyl}-7-methyl-7,9-dihydro-8H-purine-8-one] |
|  |  | 96% | 10 nM | CCn1c(=O)n(C(=O)N2CCC2)c2nc(CCc3cccc(F)c3)ncc21 [Example 650, 9-(Azetidin-1-ylcarbonyl)-7-ethyl-2-[2-(3-fluorophenyl)ethyl]-7,9-dihydro-8H-purine-8-one] |
| 99% | 31 nM |  |  | Cc1cccc(-c2ncc3c(n2)n(C(=O)N2CCCC2)c(=O)n3C)c1 [Example 228, 7-Methyl-2-(3-methylphenyl)-9-(pyrrolidin-1-ylcarbonyl)-7,9-dihydro-8H-purine-8-one] |
| 98% | 39 nM |  |  | Cn1c(=O)n(C(=O)N2CCCC2)c2nc(-c3ccc(C(F)(F)F)cc3)ncc21 [Example 235, 7-Methyl-9-(pyrrolidin-1-ylcarbonyl)-2-[4-(trifluoromethyl)phenyl]-7,9-dihydro-8H-purine-8-one] |
| 93% | 13 nM |  |  | CCN(C)C(=O)n1c(=O)n(C)c2cnc(-c3cccc(C(F)F)c3)nc21 [compound 344] |
|  |  | 77% | 36 nM | Cn1c(=O)n(C(=O)N2CC(c3ccccc3)C2)c2nc(C3CC3)ncc21 [Example 631] |
| 97% | 10 nM |  |  | Cc1ccc(CCc2ncc3c(n2)n(C(=O)N2CCC2)c(=O)n3C)cc1 [compound 559] |
| 98% | 10 nM |  |  | CN(C)C(=O)n1c(=O)n(C)c2cnc(CCc3cccc(C4CC4)c3)nc21 [compound 517] |
| 80% | 30 nM |  |  | CN(C)C(=O)n1c(=O)n(C)c2cnc(CCc3ccc(OC4CCC4)cc3)nc21 [compound 531] |
| 102% | 0.5 nM |  |  | CN(CCOc1ccc(Cl)cc1)C(=O)n1c(=O)n(C)c2nc(-c3ccncc3)ncc21 [Example 151, N-[2-(4-Chlorophenoxy)ethyl]-N,9-dimethyl-8-oxo-2-(pyridin-4-yl)-8,9-dihydro-7H-purine-7-carboxamide] |
|  |  | 117% | 13 nM | CCCn1c(=O)n(C(=O)N(C)C)c2nc(CCc3ccccc3F)ncc21 [Example 646, 2-[2-(2-Fluorophenyl)ethyl]-N,N-dimethyl-8-oxo-7-propyl-7,8-dihydro-9H-purine-9-carboxamide] |
| 93% | 48 nM |  |  | Cn1c(=O)n(C(=O)N2CCCC2)c2cnc(Cc3c(F)cccc3F)nc21 [Example 268, 2-(2,6-Difluorobenzyl)-9-methyl-7-(pyrrolidin-1-ylcarbonyl)-7,9-dihydro-8H-purine-8-one] |
| 99% | 27 nM |  |  | C/C=C/c1ncc2c(n1)n(C)c(=O)n2C(=O)N1CCCC1 [Example 217] |
| 104% | 5 nM |  |  | COCc1ncc2c(n1)n(C)c(=O)n2C(=O)N1CC(c2ccc(F)cc2)C1 [Example 439, 7-{[3-(4-Fluorophenyl)azetidin-1-yl]carbonyl}-2-(methoxymethyl)-9-methyl-7,9-dihydro-8H-purine-8-one] |
| 100% | 37 nM |  |  | Cn1c(=O)n(C(=O)N2CCCC2)c2nc(Cc3cc(F)cc(F)c3)ncc21 [Example 299, 2-(3,5-Difluorobenzyl)-7-methyl-9-(pyrrolidin-1-ylcarbonyl)-7,9-dihydro-8H-purine-8-one] |
